Results on 33 compounds are retold here after patent US20250186411A1, “Methods of Treating Disorders Associated with Overactivation of IKKB” (The United States Government as represented by the …, priority 2023, published 2025).

Assay [1] concerns KLF15 promoter (pEZX-FR03hKLF15p human podocytes). Put plainly: KLF15 reporter high-throughput screening assay in human podocytes (firefly/renilla luciferase). The assay is classed as cell-based. As to conditions: for fold induction at 1 µM: Homo sapiens, read-out: Fold Change (KLF15 reporter activity). The method, then: Briefly, these podocytes proliferate under permissive conditions (gamma interferon at 33° C.), but differentiate under nonpermissive conditions (37° C.).
The amplified fragment contains MluI and PmeI RE sites and was subcloned into the MluI and PmeI cloning site of the pEZX-FR03 Firefly luciferase (FLuc) and Renilla luciferase (Rluc) reporter cloning vector (GeneCopoeia) to generate pEZX-FR03hKLF15p. Following verification of the sequence by restriction and μsequencing, the pEZX-FR03hKLF15p construct (which contains a puromycin resistance cassette) was transfected into human podocytes followed by selection in puromycin-containing media for 2 weeks. Surviving podocytes clones were pooled together for further analysis.
The library of compounds from the National Cancer Institute (Approved Oncology Drugs Set VI; Natural Products Set III; Diversity Set V; and Mechanistic Diversity Set II) were added to a final concentration of 1 μM in 0.5% DMSO in the low FBS cell culture media (0.2% FBS) using liquid handling system PipetMax (Gilson). After 24 hours incubation at 37° C., the Luc-Pair™ Duo-Luciferase HT Assay Kit (GeneCopoeia LF015) were used and firefly and renilla luciferase activity was determined using the SpectraMax M3 (Molecular Devices). Positive controls were all-trans retinoic acid (atRA) (1 μM) and dexamethasone (DEX) (1 μM). Negative controls were DMSO and cell-free media.
(§1) To identify small molecule inducers of KLF15 expression in human podocytes, human podocytes were generated with a dual reporter, firefly luciferase directed at the KLF15 promoter region and renilla luciferase (pEZX-FR03hKLF15p). […] The positive controls were inducers of KLF15 expression, dexamethasone (DEX) and all-trans retinoic acid (atRA), and […] and cell-free wells served as negative controls.

The test system is the same in assay [2]. Put plainly: Half maximal effective concentration (EC50) of KLF15 reporter activity. Format: cell-based. The procedure:
The EC50 was determined using nonlinear regression and then choosing the equation of Sigmoidal function, 4PL method (X is log(concentration); or the equation of log(agonist) vs. response—variable slope).
as §1

Setting [3] is: NCI library hits, 1 μM, 24 hours.
Where [4] appears, read: Homo sapiens, KLF15 reporter activity, dose-response, read-out: EC50.
Where [5] appears, read: KLF15 reporter activity, dose-response, read-out: EC50.

pEC50: −log10 of the molar value. Like-named read-outs stand apart in the source and are kept apart here.

For orientation: pEC50 means the negative decadic logarithm of the EC50, by convention in mol/L. For `O=C(NC(=S)Nc1ccccn1)c1ccccc1` [C-36, N-(pyridin-2-ylcarbamothioyl)benzamide], the fold induction at 1 µM in assay [1] (setting [3]) stood at 2.64. For the same compound, the negative-log EC50 (pEC50) in assay [2] (setting [4]) is 6.53.
Taken in the same sequence, the figures for `COc1ccc(C(C#N)=Cc2ccccn2)cc1` [C-40, 2-(4-methoxyphenyl)-3-pyridin-2-ylprop-2-enenitrile] were 2.6 and 6.26.
On the same counts, the results for `O=C1Nc2ccccc2C1=NNC(=O)c1ccccc1O` [C-34, 2-hydroxy-N′-(2-oxo-1,2-dihydro-3H-indol-3-ylidene)benzohydrazide] are 2.69 and 6.92.
Regarding “5-Methylbenzo[c]phenanthridin-5-ium-2,3,8,9-tetrol; pyridine; chloride; hydrochloride [C-23]”, the “Fold Change (KLF15 reporter activity)” value in assay [1] (setting [3]) stood at 3.0541 fold. Moreover, in assay [2] (setting [5]), the negative-log EC50 (pEC50) was 6.53.
Regarding `O=C(Nc1ccc(Nc2ccccc2)cc1)Nc1ccccc1Cl` [C-14, 1-(4-Anilinophenyl)-3-(2-chlorophenyl)urea], the fold induction at 1 µM in assay [1] (setting [3]) was determined as 3.03. The pEC50 in assay [2] (setting [4]) is 7.38.
With “Tin(IV), chlorotriphenyl[1-(4-ethoxyphenyl)-3-cyanoureato]-, hydrogen, trimethylamine [C-17]”, in assay [1] (setting [3]), the “Fold Change (KLF15 reporter activity)” value was 4.6159 fold.
With `O=C1C(c2cnc3ccccc3n2)=C(O)c2ccccc21` [C-31, 1-Indenone, 3-hydroxy-2-(2-quinoxalinyl)-], the fold induction at 1 µM in assay [1] (setting [3]) was 2.85. Also, the negative-log EC50 (pEC50) in assay [2] (setting [4]) is 7.34.
For the compound “2-[2-[(2E)-2-[(5Z)-5-(anilinomethylene)-3-ethyl-4-oxo-thiazolidin-2-ylidene[hydrazino]thiazol-5-yl]-N-(o-tolyl)acetamide [C-26]”, the “Fold Change (KLF15 reporter activity)” value in assay [1] (setting [3]) was 3.0168 fold. Also, in assay [2] (setting [5]), the negative logarithm of the EC50 (pEC50) is 6.31.
In the case of `O=C(Nc1ccc(Cl)c(Cl)c1)Nc1ccccc1O` [C-13, N-(3,4-dichlorophenyl)-N′-(2-hydroxyphenyl)urea], the fold induction at 1 µM in assay [1] (setting [3]) worked out at 2.64. For the same compound, the pEC50 in assay [2] (setting [4]) was 7.06.
Taken in the same sequence, the figures for `Nc1ccccc1C(=O)Nc1ccc(Cl)cc1Cl` [C-11, 2-amino-N-(2,4-dichlorophenyl)benzamide] were 2.64 and 6.15.
For the compound `CN(C)c1ccc(N=Nc2cccc3ccoc23)cc1` [C-28, 7-(p-N,N-Dimethylaminophenylazo)benzofuran], the fold induction at 1 µM in assay [1] (setting [3]) amounted to 2.87. Also, the negative logarithm of the EC50 (pEC50) in assay [2] (setting [4]) was approximately 5.20.
Taken in the same sequence, the figures for `O=C(Nc1ccc2ccccc2c1)c1cccc(F)c1` [C-8, 3-fluoro-N-(2-naphthyl)benzamide] were 2.79 and 7.15.
As to `Cc1nc(-n2nc(-c3ccccc3)cc2-c2ccccc2)sc1C(=O)C=Cc1ccc(Cl)c(Cl)c1` [C-27, 3-(3,4-dichlorophenyl)-1-(2-(3,5-diphenyl-1H-pyrazol-1-yl)-4-methylthiazol-5-yl)prop-2-en-1-one], in assay [1] (setting [3]), the fold induction at 1 µM was 2.89.
With `COc1cccc(C=Cc2nccc3ccccc23)c1OC` [C-44], in assay [1] (setting [3]), the “Fold Change (KLF15 reporter activity)” value came to 2.5631 fold. The negative-log EC50 (pEC50) in assay [2] (setting [5]) was approximately 5.74.
With `COc1ccc2c(n1)Sc1nc3ccccc3nc1N2` [C-35, 7-Methoxy-1,4,6-benzotriazaphenothiazine], the “Fold Change (KLF15 reporter activity)” value in assay [1] (setting [3]) was found to be 2.6597 fold. In addition, in assay [2] (setting [5]), the pEC50 was 6.50.
Regarding `CCOC(=O)c1sc2[n+](c1C)C(=O)/C(=C/c1ccc([N+](=O)[O-])cc1)S2.[Cl-]` [C-32, ethyl (2Z)-5-methyl-2-[(4-nitrophenyl)methylidene]-3-oxo-[1,3]thiazolo[2,3-b][1,3]thiazol-4-ium-6-carboxylate;chloride], in assay [1] (setting [3]), the “Fold Change (KLF15 reporter activity)” value turned out to be 2.8360 fold.
As to `Cc1ccc(NC(=O)c2cccc([N+](=O)[O-])c2O)c([N+](=O)[O-])c1` [C-21, 2-hydroxy-N-(4-methyl-2-nitrophenyl)-3-nitrobenzamide], in assay [1] (24 h), the fold induction at 1 µM worked out at 3.11. In addition, the pEC50 in assay [2] (Homo sapiens) is 7.21.
Taken in the same sequence, the figures for `CC1=C(O)C(=O)C=C2C1=CC=C1[C@@]2(C)CC[C@@]2(C)[C@@H]3C[C@](C)(C(=O)O)CC[C@]3(C)CC[C@]12C` [C-19, Celastrol] were 3.28 and 7.95.
With `Cc1cc(N(C)C)ccc1/N=N/c1ccc2ncccc2c1` [C-25, N,N,3-trimethyl-4-[(E)-6-quinolylazo]aniline], the fold induction at 1 µM in assay [1] (setting [3]) stood at 3.02. In addition, the negative logarithm of the EC50 (pEC50) in assay [2] (setting [4]) was 7.80.
In the case of `Cc1ccc(N/N=C2\C(=N)N(c3ccccc3)N=C2N)cc1` [C-24, (4Z)-5-imino-4-[(4-methylphenyl)hydrazinylidene]-1-phenylpyrazol-3-amine], the fold induction at 1 µM in assay [1] (setting [3]) was 3.03. For the same compound, the negative logarithm of the EC50 (pEC50) in assay [2] (setting [4]) was 5.57.
Take `Cc1cccn2c(=O)[nH]nc12` [C-29]: the “Fold Change (KLF15 reporter activity)” value in assay [1] (setting [3]) worked out at 2.8700 fold. For the same compound, the pEC50 in assay [2] (setting [5]) was 6.26.
In the case of `CN(C)c1ccc(/C=C2\C=Cc3ccccc32)cc1` [C-3, [(4-Dimethylamino)benzylidene]indene], in assay [1] (setting [3]), the “Fold Change (KLF15 reporter activity)” value was determined as 2.6455 fold. For the same compound, the negative-log EC50 (pEC50) in assay [2] (setting [5]) is 7.75.
Regarding `Cc1ccc(NNC2=C3N=NN=C3C=CC2=O)cc1` [C-43, 4-[2-(4-methylphenyl)hydrazinyl]benzotriazol-5-one], the fold induction at 1 µM in assay [1] (setting [3]) came to 2.57. In addition, in assay [2] (setting [4]), the negative-log EC50 (pEC50) is 6.06.
For `COc1cccc2nc3cc(C)c(C)cc3nc12` [C-41, 1-Methoxy-7,8-dimethylphenazine], the fold induction at 1 µM in assay [1] (setting [3]) stood at 2.59. In assay [2] (setting [4]), the negative logarithm of the EC50 (pEC50) was 6.67.
For `CN(C)c1ccc(N=Nc2ccccn2)cc1` [C-37, 4-(2-pyridylazo)-n,n-dimethylaniline], in assay [1] (setting [3]), the “Fold Change (KLF15 reporter activity)” value turned out to be 2.6148 fold. Besides, in assay [2] (setting [5]), the negative-log EC50 (pEC50) is 7.57.
In the case of `COc1ccc(N=Nc2ccc(N)nc2N)cc1` [C-20, 3-[(4-Methoxyphenyl)azo]-2,6-pyridinediamine], the fold induction at 1 µM in assay [1] (setting [3]) was determined as 3.14. Also, the pEC50 in assay [2] (setting [4]) was 7.07.
For the compound `Cc1csc(N=Nc2ccc(N(C)C)cc2)[n+]1[O-]` [C-39, N,N-dimethyl-4-[(4-methyl-3-oxido-1,3-thiazol-3-ium-2-yl)diazenyl]aniline], the fold induction at 1 µM in assay [1] (setting [3]) turned out to be 2.6. Further, the pEC50 in assay [2] (setting [4]) was approximately 5.16.
On the same counts, the results for `COc1ccc2[nH]c(-c3ccccc3)cc2c1` [C-5, 5-methoxy-2-phenyl-1H-indole] are 3.14 and 7.25.
For the compound `Nc1ccc2c(c1)CN1C(=O)c3ccccc3C1=N2` [C-2, Batracyclin], in assay [1] (setting [3]), the fold induction at 1 µM was 3.07. Also, the negative logarithm of the EC50 (pEC50) in assay [2] (setting [4]) is 7.83.
On to `O=C1C(=Cc2ccc([N+](=O)[O-])cc2)Sc2scc(-c3cccc([N+](=O)[O-])c3)[n+]21` [C-42, Thiazolo[2,3-b]thiazolium, 2,3-dihydro-2-[(4-nitrophenyl)methylene]-5-(3-nitrophenyl)-3-oxo-, chloride], for which the fold induction at 1 µM in assay [1] (24 h) stood at 2.58.
Consider `O=C1C=C/C(=C2/Nc3ccccc3S2)C(O)=C1` [C-33, (4E)-4-(3H-1,3-benzothiazol-2-ylidene)-3-hydroxycyclohexa-2,5-dien-1-one], for which the fold induction at 1 µM in assay [1] (setting [3]) came to 2.75. Moreover, in assay [2] (setting [4]), the pEC50 is 6.31.
On the same counts, the results for `c1ccc(-c2nnc(-c3ccccn3)s2)nc1` [C-30, 2,5-dipyridin-2-yl-1,3,4-thiadiazole] are 2.86 and 6.48.
On to `O=C(Nc1cccc([N+](=O)[O-])c1)c1ccc2ccccc2c1O` [C-38, 2-<3-Nitro-phenylcarbamoyl>-naphth-1-ol], for which the “Fold Change (KLF15 reporter activity)” value in assay [1] (setting [3]) was 2.6069 fold. For the same compound, in assay [2] (setting [5]), the pEC50 was 6.84.
